In patent US20250354979A1, “DRUG EVALUATION METHOD, REAGENT, AND KIT” (FUJIFILM Corporation, priority 2023, published 2025):

Legend:
[1] = test system: human iPS cell-derived myocardial cells; experiment: Heart rate of myocardial cells by MEA, serum-free culture medium with isoproterenol and carbachol added; assay type: cell-based; settings: serum-free culture medium with 1 μmol/L isoproterenol and 3 μmol/L carbachol; cumulative drug concentrations, 20 minutes after addition; vs medium control
Experimental: (§1) Example 4: Method and results of evaluating increase in heart rate by muscarinic receptor inhibitor (atropine) using serum-free culture medium to which adrenergic receptor agonist (isoproterenol) and muscarinic receptor agonist (carbachol) are added Human iPS cell-derived myocardial cells (iCell myocardial cells 2.0, manufactured by FUJIFILM Cellular Dynamics, Inc.) in a frozen state were thawed, suspended in a thawing culture medium (iCell myocardial cell thawing culture medium, manufactured by FUJIFILM Cellular Dynamics, Inc.), and then seeded at a cell density of 50,000 cells per well on a MEA plate (Cyto View MEA 48, manufactured by Axion BioSystems, Inc.). The seeding density of myocardial cells in the vicinity of the electrode was 2,725 cells/mm^2. After the plate was allowed to stand in a CO2 incubator for several hours, a maintenance culture medium (iCell myocardial cell maintenance culture medium, manufactured by FUJIFILM Cellular Dynamics, Inc.) containing serum was added, and the myocardial cells were cultured in the CO2 incubator for about one week. The culture medium was exchanged with a serum-free culture medium (a myocardial cell serum-free assay culture medium, manufactured by FUJIFILM Cellular Dynamics, Inc.) on the day before the measurement.
(§2) On the day of measurement, the MEA plate on which human iPS cell-derived myocardial cells were cultured was placed in an MEA system (Maestro Pro, manufactured by Axion BioSystems, Inc.), 1 μmol/L of isoproterenol (manufactured by Tokyo Chemical Industry Co., Ltd.) and 3 μmol/L of carbachol (manufactured by Tokyo Chemical Industry Co., Ltd.) were added to the culture medium, and then the extracellular potential was measured after 20 minutes from the addition (medium control, atropine concentration: 0 μmol/L). Subsequently, 0.01 μmol/L of atropine (manufactured by Tokyo Chemical Industry Co., Ltd.) was added to the MEA plate, and then the extracellular potential was measured after 20 minutes from the addition. Similarly, atropine was added to give concentrations of 0.1 μmol/L and 1 μmol/L, and then the extracellular potential was measured at each concentration.
From the measurement results of the extracellular potential, the interval between sharp peaks indicating depolarization of human iPS cell-derived myocardial cells was taken as the beating time (sec), and the heart rate (/min)=60/beating time (sec) was calculated. The addition of atropine was confirmed to result in an increase in heart rate of up to 51% (FIG. 7).
In the same manner as in Example 4, evaluation was carried out using an MEA plate on which human iPS cell-derived myocardial cells were cultured. Specifically, the same operations as in Example 4 were carried out except that atropine added in Example 4 was changed to tiotropium (manufactured by Tokyo Chemical Industry Co., Ltd.) and the concentration of tiotropium added was 1 pmol/L, 10 pmol/L, 100 pmol/L, and 1,000 pmol/L.
In the same manner as in Example 4, evaluation was carried out using an MEA plate on which human iPS cell-derived myocardial cells were cultured. Specifically, the same operations as in Example 4 were carried out except that atropine added in Example 4 was changed to glycopyrronium (manufactured by Tokyo Chemical Industry Co., Ltd.) and the concentration of glycopyrronium added was 0.01 nmol/L, 0.1 nmol/L, 1 nmol/L, and 10 nmol/L.
In the same manner as in Example 4, evaluation was carried out using an MEA plate on which human iPS cell-derived myocardial cells were cultured. Specifically, the same operations as in Example 4 were carried out except that the atropine added in Example 4 was changed to propranolol (manufactured by FUJIFILM Wako Pure Chemical Corporation) and the concentration of propranolol added was 0.1 nmol/L, 1 nmol/L, 10 nmol/L, and 100 nmol/L.
In the same manner as in Example 4, evaluation was carried out using an MEA plate on which human iPS cell-derived myocardial cells were cultured. […]

[2] = test system: human iPS cell-derived myocardial cells; experiment: Heart rate of myocardial cells by MEA, serum-free culture medium with isoproterenol added; assay type: cell-based; settings: serum-free culture medium with 1 μmol/L isoproterenol; cumulative drug concentrations, 20 minutes after addition; vs medium control
Experimental: as §1, with “1:” for “4:”, “decrease” for “increase”, “agonist (carbachol)” for “inhibitor (atropine)”, “is” for “and muscarinic receptor agonist (carbachol) are”, “2,671” for “2,725”, “The culture medium was exchanged with a serum-free culture medium (a myocardial cell serum-free assay culture medium, manufactured by FUJIFILM Cellular Dynamics, Inc.) on the day before the measurement.” left out
as §2, with “Ltd.) was” for “Ltd.) and 3 μmol/L of carbachol (manufactured by Tokyo Chemical Industry Co., Ltd.) were”, “control, carbachol” for “control, atropine”, “of carbachol” for “of atropine”, “Similarly, carbachol” for “Similarly, atropine”, “0.1 μmol/L, 1 μmol/L,” for “0.1 μmol/L”, “and 10” for “and 1”
From the measurement results of the extracellular potential, the interval between sharp peaks indicating depolarization of human iPS cell-derived myocardial cells was taken as the beating time (sec), and the heart rate (/min)=60/ beating time (sec) was calculated. […]

CC(=O)Oc1ccccc1C(=O)O [aspirin]
increase in heart rate [1]: at most 17%

CC(C)NCC(O)COc1ccc(CC(N)=O)cc1 (stereo not shown) [atenolol]
decrease in heart rate [1]: up to 22%

CC1OC2(CS1)CN1CCC2CC1 (stereo not shown) [cevimeline]
decrease in heart rate [2]: up to 26%

C[N+]1(C)CCC(OC(=O)C(O)(c2ccccc2)C2CCCC2)C1 (stereo not shown) [glycopyrronium]
increase in heart rate [1]: up to 36%

CC[C@@H]1C(=O)OC[C@@H]1Cc1cncn1C [pilocarpine]
decrease in heart rate [2]: up to 15%

CC(C)NCC(O)COc1cccc2ccccc12 (stereo not shown) [propranolol]
decrease in heart rate [1]: up to 28%

C[N+]1(C)[C@@H]2C[C@@H](OC(=O)C(O)(c3cccs3)c3cccs3)C[C@H]1[C@@H]1O[C@@H]12 [tiotropium]
increase in heart rate [1]: up to 36%
